Reference: patent publication US20040037804A1, “Methods for treatment of asthma” (priority 2002, published 2004)

Test system: airway smooth muscle (ASM) tissues
Assay: Isometric constrictor responsiveness to acetylcholine in isolated rabbit tracheal ASM rings (organ bath)
Format: cell-based
Conditions: control (not cytokine-exposed) ASM, DEX 1 μM, 24 hours
Experimental: Following general anesthesia with xylazine (10 mg/kg) and ketamine 50 mg/kg), NZW rabbits were sacrificed by air embolism and the tracheae were removed, cleaned of loose connective tissue and epithelium, and divided into ring segments.
Following incubation, the ASM tissue segments were placed in organ baths containing modified Krebs Ringer solution, and aerated with 5% CO2 in oxygen at 37° C. The tissues' isometric cholinergic contractility was subsequently assessed by cumulative administration of acetylcholine (ACh; 10^−10 to 10^−3 M).

## C[C@@H]1C[C@H]2[C@@H]3CCC4=CC(=O)C=C[C@]4(C)[C@@]3(F)[C@@H](O)C[C@]2(C)[C@@]1(O)C(=O)CO [DEX, dexamethasone]
  effect on constrictor responses to ACh in control ASM: no effect
